# Laboratory results: ChEMBL document CHEMBL5634091, “Cantharidin analogue alleviates dextran sulfate sodium-induced colitis in mice by inhibiting the activation of NF-κB signaling” (Eur J Med Chem, 2023)
# The source made the active and inactive calls. The calls are words filed in the database; no cut-off is given here.
# What was measured:
# [1] = Toxicity in Kunming mouse assessed as number of mouse survived at 400 mg/kg, po measured for 15 days; format: organism-based; settings: in vivo, 360 h, time 15 day
# Mus musculus [2] = test: Anti-inflammatory activity in C57BL/6 mouse model of DSS-induced acute ulcerative colitis assessed as reduction in p65 expression in colon at 100 to 300 mg/kg, po administered once a day for 7 days by immunohistochemical analysis; format: functional, organism-based; settings: dose 100-300 mg/kg, time 7.0 day
# HCT-116 [3] = test: Cytotoxicity against human HCT-116 cells assessed as induction of stress response at 50 uM; format: toxicity, cell-based; settings: hct-116, 50 µM
# DLD-1 [4] = test: Cytotoxicity against human DLD-1 cells assessed as induction of stress response at 50 uM; format: toxicity, cell-based; settings: dld-1, 50 µM
# HCT-116 [5] = test: Inhibition of TNF-alpha induced MAPK signaling pathway activation in human HCT-116 cells assessed as decrease in phospho-ERK protein expression at 6.25 uM preincubated for 4 hrs and followed TNF-alpha stimulation and measured after 10 mins by Western blot analysis; format: cell-based; settings: time 250.0 min
# DLD-1 [6] = test: Inhibition of TNF-alpha-induced NF-kappaB nuclear translocation in human DLD-1 cells preincubated for 4 hrs followed by TNF-alpha stimulation and measured after 30 mins by immunofluorescence staining based laser scanning confocal microscopic analysis; format: cell-based; settings: dose 25-50 µM, time 4.5 hrs
# HCT-116 [7] = test: Inhibition of TNF-alpha induced MAPK signaling pathway activation in human HCT-116 cells assessed as decrease in phospho-JNK protein expression at 6.25 uM preincubated for 4 hrs and followed TNF-alpha stimulation and measured after 10 mins by Western blot analysis; format: cell-based; settings: time 250.0 min
# HCT-116 [8] = test: Inhibition of TNF-alpha induced NF-kB activation in human HCT-116 cells assessed as decrease in phosphorylated IkappaBalpha protein expression preincubated for 4 hrs and followed TNF-alpha stimulation and measured after 10 mins by Western blot analysis; format: cell-based; settings: dose 12.5-50 µM, time 250.0 min
# Mus musculus [9] = test: Anti-inflammatory activity in C57BL/6 mouse model of DSS-induced acute ulcerative colitis assessed as increase in colon length at 100 to 300 mg/kg, po administered once a day for 7 days; format: functional, organism-based; settings: dose 100-300 mg/kg, time 7.0 day
# DLD-1 [10] = test: Activation of MAPK signaling pathway in TNF-alpha stimulated human DLD-1 cells assessed as increase in phospho-JNK protein expression at 50 uM preincubated for 4 hrs and followed TNF-alpha stimulation and measured after 10 mins by Western blot analysis; format: cell-based; settings: filed as activator, time 250.0 min
# HCT-116 [11] = test: Inhibition of TNF-alpha induced activation of MAPK signaling pathway in human HCT-116 cells assessed as change in phosphorylated p38 level at 6.25 to 50 uM preincubated for 4 hrs and followed TNF-alpha stimulation and measured after 10 mins by Western blot analysis; format: cell-based; settings: dose 6.25-50 µM, time 250.0 min
# Mus musculus [12] = test: Anti-inflammatory activity in po dosed C57BL/6 mouse model of DSS-induced acute ulcerative colitis assessed as reduction in TNFalpha mRNA expression in colon administered once a day for 7 days by RT-PCR analysis; format: functional, organism-based; settings: dose 100-300 mg/kg, time 7.0 day
# DLD-1 [13] = test: Inhibition of TNF-alpha induced MAPK signaling pathway activation in human DLD-1 cells assessed as decrease in phospho-ERK protein expression at 12.5 uM preincubated for 4 hrs and followed TNF-alpha stimulation and measured after 10 mins by Western blot analysis; format: cell-based; settings: time 250.0 min
# Mus musculus [14] = test: Anti-inflammatory activity in po dosed C57BL/6 mouse model of DSS-induced acute ulcerative colitis assessed as reduction in IL-6 mRNA expression in colon administered once a day for 7 days by RT-PCR analysis; format: functional, organism-based; settings: dose 100-300 mg/kg, time 7.0 day
# [15] = Toxicity in C57BL/6 mouse model of DSS-induced acute ulcerative colitis assessed as effect on lung tissue at 100 to 300 mg/kg, po administered once a day for 7 days by H and E staining based analysis; format: organism-based; settings: in vivo, 168 h, dose 100-300 mg/kg, time 7 day
# DLD-1 [16] = test: Effect on NF-kappaB p65 protein expression in TNF-alpha stimulated human DLD-1 cells at 12.5 to 50 uM preincubated for 4 hrs and followed TNF-alpha stimulation and measured after 10 mins by Western blot analysis; format: functional, cell-based; settings: dose 12.5-50 µM, time 250.0 min
# Mus musculus [17] = test: Anti-inflammatory activity in C57BL/6 mouse model of DSS-induced acute ulcerative colitis assessed as reduction in hyperemia at 100 to 300 mg/kg, po administered once a day for 7 days by H and E staining based analysis; format: functional, organism-based; settings: dose 100-300 mg/kg, time 7.0 day
# DLD-1 [18] = test: Effect on IKK protein expression in TNF-alpha stimulated human DLD-1 cells at 12.5 to 50 uM preincubated for 4 hrs and followed TNF-alpha stimulation and measured after 10 mins by Western blot analysis; format: functional, cell-based; settings: dose 12.5-50 µM, time 250.0 min
# HCT-116 [19] = test: Effect on p38 protein expression in TNF-alpha stimulated human HCT-116 cells at 6.25 to 50 uM preincubated for 4 hrs and followed TNF-alpha stimulation and measured after 10 mins by Western blot analysis; format: functional, cell-based; settings: dose 6.25-50 µM, time 250.0 min
# DLD-1 [20] = test: Inhibition of TNF-alpha induced NF-kB activation in human DLD-1 cells assessed as decrease in phosphorylated p65 protein expression preincubated for 4 hrs and followed TNF-alpha stimulation and measured after 10 mins by Western blot analysis; format: cell-based; settings: dose 12.5-50 µM, time 250.0 min
# [21] = Toxicity in Kunming mouse assessed as increase in body weight at 667 mg/kg, po measured for 15 days (reference value: 12.38%); format: organism-based; settings: in vivo, 360 h, time 15 day
# HCT-116 [22] = test: Effect on NF-kappaB p65 protein expression in TNF-alpha stimulated human HCT-116 cells at 12.5 to 50 uM preincubated for 4 hrs and followed TNF-alpha stimulation and measured after 10 mins by Western blot analysis; format: functional, cell-based; settings: dose 12.5-50 µM, time 250.0 min
# HCT-116 [23] = test: Activation of MAPK signaling pathway in TNF-alpha stimulated human HCT-116 cells assessed as increase in phospho-ERK protein expression at 50 uM preincubated for 4 hrs and followed TNF-alpha stimulation and measured after 10 mins by Western blot analysis; format: cell-based; settings: filed as activator, time 250.0 min
# HCT-116 [24] = test: Upregulation of JNK protein expression in TNF-alpha stimulated human HCT-116 cells at 50 uM preincubated for 4 hrs and followed TNF-alpha stimulation and measured after 10 mins by Western blot analysis; format: functional, cell-based; settings: time 250.0 min
# HCT-116 [25] = test: Inhibition of TNF-alpha induced NF-kB activation in human HCT-116 cells assessed as decrease in phosphorylated p65 protein expression preincubated for 4 hrs and followed TNF-alpha stimulation and measured after 10 mins by Western blot analysis; format: cell-based; settings: dose 12.5-50 µM, time 250.0 min
# Mus musculus [26] = test: Anti-inflammatory activity in C57BL/6 mouse model of DSS-induced acute ulcerative colitis assessed as reduction in tissue lesions at 100 to 300 mg/kg, po administered once a day for 7 days by H and E staining based analysis; format: functional, organism-based; settings: dose 100-300 mg/kg, time 7.0 day
# DLD-1 [27] = test: Activation of MAPK signaling pathway in TNF-alpha stimulated human DLD-1 cells assessed as increase in phospho-ERK protein expression at 50 uM preincubated for 4 hrs and followed TNF-alpha stimulation and measured after 10 mins by Western blot analysis; format: cell-based; settings: filed as activator, time 250.0 min
# [28] = Selectivity index, ratio of CC50 for cytotoxicity against TNF-alpha induced HEK293T cells to IC50 for inhibition of TNF-alpha induced NF-kappaB activation in HEK293T cells; format: toxicity, cell-based; settings: human, HEK293T cells induced with TNF-alpha; read-out: Ratio IC50
# HCT-116 [29] = test: Effect on IKK protein expression in TNF-alpha stimulated human HCT-116 cells at 12.5 to 50 uM preincubated for 4 hrs and followed TNF-alpha stimulation and measured after 10 mins by Western blot analysis; format: functional, cell-based; settings: dose 12.5-50 µM, time 250.0 min
compound,measurement,setting,value
COC(=O)C1=C(C(=O)OC)C2OC1CC2C#Cc1ccc(C)cc1 (centres undefined),Activity,[1],0
same,Activity,Mus musculus [2],Active
same,Activity,HCT-116 [3],Toxic
same,Activity,DLD-1 [4],Toxic
same,inhibition,HCT-116 [5],Active
same,inhibition,DLD-1 [6],Dose-Dependent Effect
same,inhibition,HCT-116 [7],Active
same,inhibition,HCT-116 [8],Dose-Dependent Effect
same,Activity,Mus musculus [9],Active
same,Activity,DLD-1 [10],Active
same,inhibition,HCT-116 [11],inactive
same,Activity,Mus musculus [12],Dose-Dependent Effect
same,inhibition,DLD-1 [13],Active
same,Activity,Mus musculus [14],Dose-Dependent Effect
same,Activity,[15],Non-Toxic
same,Activity,DLD-1 [16],inactive
same,Activity,Mus musculus [17],Active
same,Activity,DLD-1 [18],inactive
same,Activity,HCT-116 [19],inactive
same,inhibition,DLD-1 [20],Dose-Dependent Effect
same,Activity,[21],19.18%
same,Activity,HCT-116 [22],inactive
same,Activity,HCT-116 [23],Active
same,Activity,HCT-116 [24],Active
same,inhibition,HCT-116 [25],Dose-Dependent Effect
same,Activity,Mus musculus [26],Active
same,Activity,DLD-1 [27],Active
same,selectivity ratio,[28],5.85
same,Activity,HCT-116 [29],inactive
